Results reported in article PMC6503450, “Proteases Underground: Analysis of the Maize Root Apoplast Identifies Organ Specific Papain-Like Cysteine Protease Activity” (Frontiers in Plant Science, 2019).

Key:
CP1C = target: T1, CP1C (Zea mays, UniProt B4FS90); test: fluorogenic substrate cleavage assay, apoplastic fluid of overexpressing N. benthamiana; format: cell-based; details: 10 uM Z-LR-AMC, pH 6, 0.5 mM DTT; covalent irreversible active-site inhibitor
T1 sequence (B4FS90 150-389 limits assumed): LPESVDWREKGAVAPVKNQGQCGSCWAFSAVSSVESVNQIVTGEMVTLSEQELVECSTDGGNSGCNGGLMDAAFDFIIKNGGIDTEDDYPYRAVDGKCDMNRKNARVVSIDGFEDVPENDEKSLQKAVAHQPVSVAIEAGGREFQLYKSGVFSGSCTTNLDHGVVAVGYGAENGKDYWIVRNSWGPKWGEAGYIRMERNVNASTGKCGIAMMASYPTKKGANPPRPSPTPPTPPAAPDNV

CP1B = target: T2, CP1B (Zea mays, UniProt K7TP58); test: as above; format: cell-based
T2 construct: gene LOC100283284
T2 sequence (K7TP58 135-372 limits assumed): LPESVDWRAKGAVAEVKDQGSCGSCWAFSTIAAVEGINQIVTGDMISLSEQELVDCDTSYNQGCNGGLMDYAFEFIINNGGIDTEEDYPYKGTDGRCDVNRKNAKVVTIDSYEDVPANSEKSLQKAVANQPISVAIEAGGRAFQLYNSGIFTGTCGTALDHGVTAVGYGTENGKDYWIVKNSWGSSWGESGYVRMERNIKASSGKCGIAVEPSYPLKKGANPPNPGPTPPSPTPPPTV

## CC(C)C[C@H](NC(=O)[C@H]1O[C@@H]1C(=O)O)C(=O)NCCCCN=C(N)N [E-64]
CP1C
  IC50: 3.2 ± 0.2 nM
CP1B
  IC50: 10 ± 0.9 nM
